# Measurements: article PMC11768629, “Potential Interaction of Pinocembrin with Drug Transporters and Hepatic Drug-Metabolizing Enzymes” (Pharmaceuticals, 2025)
# Tests used:
# hOAT3-MDCK cells = experiment: Cell viability assay (MTT) in hOAT3-MDCK cells; format: cell-based, canine; conditions: tenofovir 5 µM, 48 h
# Experimental: (§1) The hOAT1-MDCK cells and hOAT3-MDCK cells were treated with 1, 10, and 50 μM pinocembrin for 24 h, followed by a measurement of ^3H-PAH and ^3H-estrone sulfate cellular accumulation. […] The inhibitory effect of pinocembrin occurred in a concentration-dependent manner.
# (§2) We determined whether the inhibitory effect of pinocembrin on hOAT1 and hOAT3. We studied whether pinocembrin could reduce the renal toxicity of tenofovir, a substrate of hOAT1 and hOAT3 known for inducing renal tubular dysfunction.
# (§3) The confluent cells in 96-well plates were treated with pinocembrin for 48 h at 37 °C. After that, the cells were incubated with 0.5 mg/mL MTT solution for four hours. The MTT solution was removed, and DMSO (100 µL) was added to dissolve the crystal formazan. The formazan content was detected at a wavelength of 570 nm using a microplate reader. Cell viability was reported as a percentage of the vehicle-treated cells.
# hOAT1-MDCK cells = experiment: Cell viability assay (MTT) in hOAT1-MDCK cells; format: cell-based, canine; conditions: tenofovir 5 µM, 48 h
# Experimental: as §1, §2, §3
smiles,measurement,setting,value
C[C@H](Cn1cnc2c(N)ncnc21)OCP(=O)(O)O [tenofovir],cell viability,hOAT3-MDCK cells,did not affect the viability
same,cell viability,hOAT1-MDCK cells,significantly reduced the cell viability
